The series in a line: in vitro. The settings on record: rat, gh3-tre-luc cells.

Molecules are shown by their SMILES. Where a name gives a salt, the structure may show the parent alone. Where only a bound is given, the exact number is not on record here.

`CCCCCCOC(=O)C(C)CC` (stereo not shown) [Hexyl 2-methylbutanoate] came in with a 50% cytotoxic concentration (CC50) at 24 h (AC50 (uM) modified / 1000) above 90 µM.
Same read-out and setting: with `CO[C@@H]1[C@@H](O[C@@H]2O[C@H](C)[C@@H](O[C@H]3C[C@@](C)(O)[C@@H](OC(=O)CC(C)C)[C@H](C)O3)[C@H](N(C)C)[C@H]2O)[C@@H](CC=O)C[C@@H](C)[C@@H](O)/C=C/C=C/C[C@@H](C)OC(=O)C[C@H]1OC(C)=O` [Josamycin] the figure was above 20 µM; with `Cc1nn(-c2cc(NS(C)(=O)=O)c(Cl)cc2Cl)c(=O)n1C(F)F` [Sulfentrazone], above 90 µM.
For `c1ccc2c(c1)Oc1ccccc1O2` [Dibenzo-p-dioxin], the CC50 at 24 h (AC50 (uM) modified / 1000, Tox21_110001=Tox21_202045, viability, 1 nM T3 present, 24 h) is above 90 µM.
Turning to `C=CC[N+]1([C@H]2C[C@H]3[C@@H]4CC[C@H]5C[C@H](OC(C)=O)[C@@H](N6CCCCC6)C[C@]5(C)[C@H]4CC[C@]3(C)[C@H]2OC(=O)CC)CCCCC1` [Rapacuronium bromide], the CC50 at 24 h (AC50 (uM) modified / 1000) is above 50 µM.
The compound `C[C@H]1[C@H]2Cc3ccc(O)cc3[C@]1(C)CCN2CCc1ccccc1` [(-)-Phenazocine hydrobromide] displayed a CC50 at 24 h (AC50 (uM) modified / 1000, Tox21_110001=Tox21_112835, viability, 1 nM T3 present, 24 h) of 48.2 µM.
Take `Cc1ccnc2ccccc12` [Lepidine]: the CC50 at 24 h (AC50 (uM) modified / 1000) was above 90 µM.
Regarding `CNCC(O)c1ccc(OC(=O)C(C)(C)C)c(OC(=O)C(C)(C)C)c1` (stereo not shown) [Dipivefrin hydrochloride], the CC50 at 24 h (AC50 (uM) modified / 1000) stood at 10.3 µM.
Same read-out and setting: under `CC[N+](CC)(CC(=O)Nc1c(C)cccc1C)Cc1ccccc1` [Denatonium benzoate] stands above 50 µM.
In turn, `CNC(=O)Oc1cccc2c1OC(C)(C)O2` [Bendiocarb] came in with a CC50 at 24 h (AC50 (uM) modified / 1000, Tox21_110001=Tox21_201562, viability, 1 nM T3 present, 24 h) above 90 µM.
For the setting “AC50 (uM) modified / 1000”, `Nc1ccc([N+](=O)[O-])c(N)c1` [4-Nitro-1,3-benzenediamine] gave a CC50 at 24 h of 64.4 µM.
The compound `O=C(Oc1ccccc1)c1ccc(O)cc1` [Phenylparaben] returned a CC50 at 24 h (AC50 (uM) modified / 1000) above 90 µM.
On to `CC(C)=CCOc1c2occc2cc2ccc(=O)oc12` [Imperatorin], for which the 50% cytotoxic concentration (CC50) at 24 h (AC50 (uM) modified / 1000) was above 50 µM.
In the case of `C[C@]12CC[C@H](OS(=O)(=O)O)CC1=CC[C@@H]1[C@@H]2CC[C@]2(C)C(=O)CC[C@@H]12` [Sodium prasterone sulfate dihydrate], where the note is “AC50 (uM) modified / 1000, Tox21_110001=Tox21_111223, viability, 1 nM T3 present, 24 h”, the CC50 at 24 h was above 50 µM.
In turn, `CC(C)(C)NCC(O)c1cc(O)cc(O)c1` (stereo not shown) [Terbutaline hemisulfate] showed a CC50 at 24 h (AC50 (uM) modified / 1000) above 50 µM.
Turning to `COc1ccc2[nH]c([S+]([O-])Cc3ncc(C)c(OC)c3C)nc2c1` (stereo not shown) [Omeprazole], the CC50 at 24 h (AC50 (uM) modified / 1000) was above 90 µM.
`CCCCCCC(C)(C)C(=O)O` [Calcium neodecanoate] returned a half-maximal cytotoxic concentration (CC50) at 24 h (AC50 (uM) modified / 1000) above 90 µM.
As to `CC(=O)c1cnccn1` [Acetylpyrazine], the 50% cytotoxic concentration (CC50) at 24 h (AC50 (uM) modified / 1000) is above 100 µM.
Where the note is “AC50 (uM) modified / 1000”, `CC(C)(O)c1ccc(CNC(=O)c2cccnc2Oc2ccc(F)cc2)cc1` [CP-457677] gave a half-maximal cytotoxic concentration (CC50) at 24 h above 90 µM.
Compound `CCCCCCCCCCCCCCC(=O)O` [Pentadecanoic acid] yielded a CC50 at 24 h (AC50 (uM) modified / 1000) above 90 µM.
On to `Cc1cc(C)c(C)c(O)c1` [2,3,5-Trimethylphenol], for which the 50% cytotoxic concentration (CC50) at 24 h (AC50 (uM) modified / 1000) was above 90 µM.
For `COc1c2occc2c(OC)c2c(=O)cc(C)oc12` [Khellin], the CC50 at 24 h (AC50 (uM) modified / 1000) was above 20 µM.
Still for that read-out and setting: with `CC1=NN(c2cc(Cl)c(S(=O)(=O)O)cc2Cl)C(=O)C1N=Nc1ccc(S(=O)(=O)O)cc1` (stereo not shown) [C.I. Acid Yellow 17, disodium salt] the figure was 92.5 µM.
Turning to `CCOC(=O)C(Cl)Cc1cc(-n2nc(C)n(C(F)F)c2=O)c(F)cc1Cl` (stereo not shown) [Carfentrazone-ethyl], under “AC50 (uM) modified / 1000, Tox21_110001=Tox21_300994, viability, 1 nM T3 present, 24 h”, the CC50 at 24 h was above 90 µM.
`CC1(C)S[C@@H]2[C@H](N3C(=O)[C@@H](c4ccccc4)NC3(C)C)C(=O)N2[C@H]1C(=O)O` [Hetacillin potassium] had a CC50 at 24 h (AC50 (uM) modified / 1000) above 50 µM.
Under “AC50 (uM) modified / 1000”, `O=P(O)(O)C(Cl)(Cl)P(=O)(O)O` [Clodronic acid, disodium salt] registered a CC50 at 24 h above 50 µM.
On to `NCC(O)c1ccc(O)cc1` (stereo not shown) [Octopamine hydrochloride], for which, under “AC50 (uM) modified / 1000”, the CC50 at 24 h was above 90 µM.
`CC(C)(CO)[N+](=O)[O-]` [2-Methyl-2-nitro-1-propanol] displayed a CC50 at 24 h (AC50 (uM) modified / 1000) above 90 µM.
In turn, `NCCc1ccc(O)c(O)c1` [Dopamine hydrochloride] showed a CC50 at 24 h (AC50 (uM) modified / 1000) of 55.3 µM.
In turn, `NC(=O)C[C@@H](N)C(=O)O` [D-Asparagine hydrate] yielded a CC50 at 24 h (AC50 (uM) modified / 1000) above 50 µM.
As for `C=C(C)C(=O)Nc1ccc(Cl)c(Cl)c1` [Chloranocryl], the CC50 at 24 h (AC50 (uM) modified / 1000) was above 90 µM.
In the case of `CN(C)CCC(O)(c1ccccc1)c1ccccc1Cl` (stereo not shown) [Chlophedianol], it took 26 µM to reach half-maximal cytotoxicity (AC50 (uM) modified / 1000) (CC50 at 24 h).
Consider `CC(C)c1ccc2sc3ccccc3c(=O)c2c1` [2-(Propan-2-yl)-9H-thioxanthen-9-one], for which, where the note is “AC50 (uM) modified / 1000”, the CC50 at 24 h was above 90 µM.
Compound `Cc1ncc(C[n+]2csc(CCOP(=O)(O)O)c2C)c(N)n1` [Monophosphothiamine] returned a CC50 at 24 h (AC50 (uM) modified / 1000) above 50 µM.
Regarding `Cc1cc(O)ccc1Cl` [4-Chloro-3-methylphenol], the CC50 at 24 h reads like this: (AC50 (uM) modified / 1000, Tox21_110001=Tox21_111116, viability, 1 nM T3 present, 24 h) above 50 µM; (AC50 (uM) modified / 1000, Tox21_110001=Tox21_201293, viability, 1 nM T3 present, 24 h) above 90 µM.
With `CO[C@H]1/C=C/O[C@@]2(C)Oc3c(C)c(O)c4c(O)c(c5c(nc6cc(C)ccn65)c4c3C2=O)NC(=O)/C(C)=C\C=C\[C@H](C)[C@H](O)[C@@H](C)[C@@H](O)[C@@H](C)[C@H](OC(C)=O)[C@@H]1C` [Rifaximin], the CC50 at 24 h (AC50 (uM) modified / 1000) was above 50 µM.
Where the note is “AC50 (uM) modified / 1000”, `O=C(O)CCCC[C@@H]1SC[C@@H]2NC(=O)N[C@@H]21` [Biotin] showed a cytotoxic concentration (CC50) at 24 h above 90 µM.
Turning to `CCOC(=O)c1cncn1[C@H](C)c1ccccc1` [Etomidate], under “AC50 (uM) modified / 1000, Tox21_110001=Tox21_110628, viability, 1 nM T3 present, 24 h”, the CC50 at 24 h was above 20 µM.
Regarding `CN1CCN(CCCN2c3ccccc3Sc3ccccc32)CC1` [Perazine], for the setting “AC50 (uM) modified / 1000”, the CC50 at 24 h was 16.5 µM.
Compound `O[C@H]1[C@H](O)[C@@H](O)[C@H](O)[C@@H](O)[C@H]1O` [myo-Inositol] came in with a CC50 at 24 h (AC50 (uM) modified / 1000) above 90 µM.
For the setting “AC50 (uM) modified / 1000”, `O=C(O)c1cccnc1` [Nicotinic acid] came in with a CC50 at 24 h above 50 µM.
`CCCCCCCN` [Heptylamine] came in with a CC50 at 24 h (AC50 (uM) modified / 1000) above 90 µM.
The same measure, in the same setting: under `C=CC(C)(C)C` [3,3-Dimethyl-1-butene] stands above 90 µM; under `Cl[C@H]1[C@H](Cl)[C@@H](Cl)[C@@H](Cl)[C@H](Cl)[C@H]1Cl` [1,2,3,4,5,6-Hexachlorocyclohexane], 45.8 µM.
`C[C@H](N[C@@H](CCc1ccccc1)C(=O)O)C(=O)N1CCC[C@H]1C(=O)O` [Enalapril acid]: the half-maximal cytotoxic concentration (CC50) at 24 h (AC50 (uM) modified / 1000) is above 50 µM.
`CCO[Si](C)(OCC)OCC` [Triethoxymethylsilane] displayed a CC50 at 24 h (AC50 (uM) modified / 1000) above 90 µM.
Under “AC50 (uM) modified / 1000”, `N=C(N)N` [Guanidine carbonate] registered a CC50 at 24 h above 50 µM.
With `CCCCCCCCCCCCCC` [Tetradecane], the CC50 at 24 h (AC50 (uM) modified / 1000) is above 90 µM.
Regarding `CCOc1ccccc1N` [2-Ethoxyaniline], the CC50 at 24 h (AC50 (uM) modified / 1000) was above 90 µM.
With `CCOC(C)=O` [Ethyl acetate], the CC50 at 24 h (AC50 (uM) modified / 1000) was above 90 µM.
Consider `COC(=O)[C@H]1[C@H]2C[C@@H]3c4[nH]c5cc(OC)ccc5c4CCN3C[C@H]2C[C@@H](OC(=O)COc2ccc(OC)cc2)[C@@H]1OC` [Mefeserpine], for which the CC50 at 24 h (AC50 (uM) modified / 1000) was above 50 µM.
The same measure, in the same setting: under `CCN1CCC[C@H]1CNC(=O)c1c(O)c(Cl)cc(Cl)c1OC` [Raclopride] stands above 50 µM; under `O=P(O)(O)CP(=O)(O)O` [Medronic acid], above 50 µM.
The compound `O=C(O)c1cc(O)c2c3nc4ccccc4oc-3cc(=O)c2n1` [Pirenoxine sodium] had a CC50 at 24 h (AC50 (uM) modified / 1000) above 50 µM.
Where the note is “AC50 (uM) modified / 1000”, `COc1cccc2c1C(=O)c1c(O)c3c(c(O)c1C2=O)C[C@@](O)(C(=O)CO)C[C@@H]3O[C@H]1C[C@H](N)[C@H](O[C@@H]2CCCCO2)[C@H](C)O1` [Pirarubicin] yielded a CC50 at 24 h of 1.64 µM.
Compound `CC(C)(C)C(=O)OCOP(=O)(COCCn1cnc2c(N)ncnc21)OCOC(=O)C(C)(C)C` [Adefovir dipivoxil] showed a CC50 at 24 h (AC50 (uM) modified / 1000) above 50 µM.
In turn, `O=[N+]([O-])C1(Br)COCOC1` [5-Bromo-5-nitro-1,3-dioxane] came in with a CC50 at 24 h (AC50 (uM) modified / 1000) of 11.8 µM.
Regarding `Cc1cc(-c2ccc(N)c(C)c2)ccc1N` [3,3'-Dimethylbenzidine], for the setting “AC50 (uM) modified / 1000, Tox21_110001=Tox21_201292, viability, 1 nM T3 present, 24 h”, the CC50 at 24 h was above 90 µM.
For the compound `O=C(O)[C@@H](S)[C@H](S)C(=O)O` [(2R,3R)-2,3-Dimercaptosuccinic acid], under “AC50 (uM) modified / 1000”, the CC50 at 24 h was 22.8 µM.
The compound `COCCOC` [Ethylene glycol dimethyl ether] came in with a CC50 at 24 h (AC50 (uM) modified / 1000) above 90 µM.
Regarding `Nc1c(Cl)cc([N+](=O)[O-])cc1Cl` [Dicloran], the CC50 at 24 h (AC50 (uM) modified / 1000) is above 90 µM.
The same measure, in the same setting: with `Nc1ccc([N+](=O)[O-])cc1O` [2-Amino-5-nitrophenol] the figure was 82.7 µM; with `C[N+](C)(C)CCOP(=O)(O)OP(=O)([O-])OC[C@H]1O[C@@H](n2ccc(N)nc2=O)[C@H](O)[C@@H]1O` [Citicoline sodium], above 50 µM; with `OC[C@@H](O)[C@@H](O)CO` [Erythritol], above 90 µM.
In the case of `N[C@H](C(=O)O)[C@H](O)c1ccc(O)c(O)c1` [Droxidopa], the CC50 at 24 h (AC50 (uM) modified / 1000) is above 50 µM.
In the case of `CCN(CC)CCNC(=O)c1ccc(NC(C)=O)cc1` [Acecainide hydrochloride], the CC50 at 24 h (AC50 (uM) modified / 1000) is above 50 µM.
Compound `Cc1ncc([N+](=O)[O-])n1CCO` [Metronidazole] had a CC50 at 24 h (AC50 (uM) modified / 1000) above 50 µM.
Consider `CN[C@@H](C)[C@H](O)c1ccccc1` [Ephedrine hydrochloride], for which the CC50 at 24 h (AC50 (uM) modified / 1000) is above 50 µM.
For `CC1=C(CC=O)C(C)(C)CCC1` [2,6,6-Trimethyl-1-cyclohexene-1-acetaldehyde], the CC50 at 24 h (AC50 (uM) modified / 1000) is above 90 µM.

In general, CC50 refers to the concentration that lowers cell viability or growth by half. Higher therefore signals lower toxicity to the cells.

(Values after PMC6792352, “Limited Chemical Structural Diversity Found to Modulate Thyroid Hormone Receptor in the Tox21 Chemical Library” (Environmental Health Perspectives, 2019).)
